Active and inactive are the calls of the source.
Key:
HEK293 [1] = test: cells; settings: Homo sapiens
[2] = Luminescence Cell-Based Dose Retest to Confirm Inhibitors of Cancer Stem Cells. [Related pubchem assays (depositor defined):AID2717, AID2721]; type: functional; settings: Homo sapiens
[3] = molecular target: T1, Microphthalmia-associated transcription factor (Homo sapiens, UniProt O75030); test: reducers of TRPM1 reporter luminescence, concentration series – cell-based, SK-MEL-5, cherry-picked, set 3, MITF inhibitor project, dose response (AID 493073); type: functional;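 note: SK-MEL-5 melanoma cells with luciferase driven by the MITF target TRPM1 promoter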
T1 sequence (O75030 whole entry): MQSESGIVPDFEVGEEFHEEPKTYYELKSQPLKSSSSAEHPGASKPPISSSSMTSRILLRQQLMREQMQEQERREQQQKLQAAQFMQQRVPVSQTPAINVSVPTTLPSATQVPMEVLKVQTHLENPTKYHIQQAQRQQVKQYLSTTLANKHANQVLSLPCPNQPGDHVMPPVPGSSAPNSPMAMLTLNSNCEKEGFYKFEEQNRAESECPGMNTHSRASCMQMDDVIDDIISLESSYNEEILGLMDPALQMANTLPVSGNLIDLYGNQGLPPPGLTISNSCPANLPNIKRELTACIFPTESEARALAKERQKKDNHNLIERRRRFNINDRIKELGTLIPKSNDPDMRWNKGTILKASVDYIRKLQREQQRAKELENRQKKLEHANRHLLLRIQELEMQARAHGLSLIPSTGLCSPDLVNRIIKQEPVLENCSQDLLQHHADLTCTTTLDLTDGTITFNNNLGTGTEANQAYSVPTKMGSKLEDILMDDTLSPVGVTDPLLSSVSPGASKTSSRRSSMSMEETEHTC

[4] = molecular target: Hepatocyte nuclear factor 4-alpha (Homo sapiens, UniProt P41235); type: functional, cell-based;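 note: biochemical luminescence-based dose-response counterscreen measuring inhibition of HNF4 dimerization, run alongside a screen for blockers of ABHD5–perilipin-5 interaction; split luciferase complementation of HNF4 fusion proteins in cell lysate measuring dimerization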
Hepatocyte nuclear factor 4-alpha, sequence (P41235 whole entry, the tested form may be a part): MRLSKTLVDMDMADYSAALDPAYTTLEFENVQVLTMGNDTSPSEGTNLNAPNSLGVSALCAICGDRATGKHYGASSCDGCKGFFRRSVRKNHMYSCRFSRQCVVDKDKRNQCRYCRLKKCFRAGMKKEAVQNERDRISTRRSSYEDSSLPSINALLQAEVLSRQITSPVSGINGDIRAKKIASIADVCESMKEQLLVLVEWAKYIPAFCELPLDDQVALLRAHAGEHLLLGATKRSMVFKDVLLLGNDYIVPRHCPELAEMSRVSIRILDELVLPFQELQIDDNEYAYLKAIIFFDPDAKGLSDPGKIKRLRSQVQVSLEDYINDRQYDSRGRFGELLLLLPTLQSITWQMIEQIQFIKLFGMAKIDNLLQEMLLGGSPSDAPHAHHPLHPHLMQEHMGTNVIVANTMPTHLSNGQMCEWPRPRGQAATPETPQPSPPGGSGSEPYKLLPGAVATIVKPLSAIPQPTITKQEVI

[5] = viability loss in THP-1 monocytes – THP-1 cells, cytotoxicity control for Vif-APOBEC3G degradation inhibitor project, dose response (AID 1117359); type: functional; settings: THP-1
A-375 = test: proliferation inhibition in MITF-low A375 cells – cell-based, cherry-pick samples, set 2, counter-screen for MITF modulator project, dose response (AID 540335); type: functional; settings: Homo sapiens
HEK293 [6] = test: cells; settings: Homo sapiens; remark: listed apart in the source
Aurora kinase A = Aurora kinase A (Homo sapiens, UniProt O14965); type: functional;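 note: value from the Navigating the Kinome kinase panel profiling, panel entry STK6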
Aurora kinase A, sequence (O14965 whole entry): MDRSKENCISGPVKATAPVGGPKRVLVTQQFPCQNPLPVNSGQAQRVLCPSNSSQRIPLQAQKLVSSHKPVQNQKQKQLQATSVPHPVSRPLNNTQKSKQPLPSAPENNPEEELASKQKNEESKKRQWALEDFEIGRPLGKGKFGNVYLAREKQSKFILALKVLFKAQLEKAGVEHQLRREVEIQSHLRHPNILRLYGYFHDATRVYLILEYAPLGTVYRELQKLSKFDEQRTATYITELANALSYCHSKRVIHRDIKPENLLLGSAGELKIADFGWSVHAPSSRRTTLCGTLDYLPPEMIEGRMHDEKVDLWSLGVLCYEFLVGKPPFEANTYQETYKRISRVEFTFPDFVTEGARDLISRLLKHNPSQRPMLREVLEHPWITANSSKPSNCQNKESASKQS

[7] = molecular target: Cyclin-dependent kinase 19 (Homo sapiens, UniProt Q9BWU1); test: Navigating the Kinome. Panel member name: CDC2L6; type: functional
Cyclin-dependent kinase 19, sequence (Q9BWU1 whole entry): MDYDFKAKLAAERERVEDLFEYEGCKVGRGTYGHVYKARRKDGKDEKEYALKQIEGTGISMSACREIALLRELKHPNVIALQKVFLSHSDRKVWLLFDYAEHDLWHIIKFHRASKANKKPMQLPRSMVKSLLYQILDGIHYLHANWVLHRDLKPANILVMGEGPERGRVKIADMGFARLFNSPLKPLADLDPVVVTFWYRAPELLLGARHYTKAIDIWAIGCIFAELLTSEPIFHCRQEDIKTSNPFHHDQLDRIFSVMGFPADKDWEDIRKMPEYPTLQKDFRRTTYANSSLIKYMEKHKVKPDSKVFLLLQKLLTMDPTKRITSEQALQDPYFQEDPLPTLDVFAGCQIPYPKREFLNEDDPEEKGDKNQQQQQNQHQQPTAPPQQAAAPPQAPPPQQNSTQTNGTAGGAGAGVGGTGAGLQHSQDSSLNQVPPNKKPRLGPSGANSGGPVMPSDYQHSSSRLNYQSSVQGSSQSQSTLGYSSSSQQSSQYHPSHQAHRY

HeLa = test: ATP-based viability loss in HeLa cells – cell-based, CellTiter-Glo luminescence, cherry-pick samples, cytotoxicity control for MITF activator project, dose response (AID 540259); type: functional; settings: Homo sapiens
[8] = molecular target: T2, Type-1 angiotensin II receptor (Homo sapiens, UniProt P30556); test: antagonism of angiotensin II type 1 receptor – cell-based, uHTS hits, selectivity assay for APJ receptor antagonist project, dose response (AID 463214); type: functional;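 note: antagonist potency against angiotensin II stimulated AT1 response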
T2 sequence (P30556 whole entry): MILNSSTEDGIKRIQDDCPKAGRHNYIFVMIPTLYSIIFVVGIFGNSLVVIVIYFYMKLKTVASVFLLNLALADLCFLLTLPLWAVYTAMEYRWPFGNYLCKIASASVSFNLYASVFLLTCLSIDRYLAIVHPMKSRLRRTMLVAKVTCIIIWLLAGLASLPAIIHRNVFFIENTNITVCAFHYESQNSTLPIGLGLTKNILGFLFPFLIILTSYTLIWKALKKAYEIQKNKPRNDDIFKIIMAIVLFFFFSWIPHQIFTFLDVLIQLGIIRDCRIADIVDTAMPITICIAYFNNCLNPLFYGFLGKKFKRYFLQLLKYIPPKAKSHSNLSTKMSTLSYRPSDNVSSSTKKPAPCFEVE

Beta-galactosidase = Beta-galactosidase (Escherichia coli, UniProt Q8VNN2); test: PubChem AID 485352; type: functional
Beta-galactosidase, sequence (Q8VNN2 whole entry): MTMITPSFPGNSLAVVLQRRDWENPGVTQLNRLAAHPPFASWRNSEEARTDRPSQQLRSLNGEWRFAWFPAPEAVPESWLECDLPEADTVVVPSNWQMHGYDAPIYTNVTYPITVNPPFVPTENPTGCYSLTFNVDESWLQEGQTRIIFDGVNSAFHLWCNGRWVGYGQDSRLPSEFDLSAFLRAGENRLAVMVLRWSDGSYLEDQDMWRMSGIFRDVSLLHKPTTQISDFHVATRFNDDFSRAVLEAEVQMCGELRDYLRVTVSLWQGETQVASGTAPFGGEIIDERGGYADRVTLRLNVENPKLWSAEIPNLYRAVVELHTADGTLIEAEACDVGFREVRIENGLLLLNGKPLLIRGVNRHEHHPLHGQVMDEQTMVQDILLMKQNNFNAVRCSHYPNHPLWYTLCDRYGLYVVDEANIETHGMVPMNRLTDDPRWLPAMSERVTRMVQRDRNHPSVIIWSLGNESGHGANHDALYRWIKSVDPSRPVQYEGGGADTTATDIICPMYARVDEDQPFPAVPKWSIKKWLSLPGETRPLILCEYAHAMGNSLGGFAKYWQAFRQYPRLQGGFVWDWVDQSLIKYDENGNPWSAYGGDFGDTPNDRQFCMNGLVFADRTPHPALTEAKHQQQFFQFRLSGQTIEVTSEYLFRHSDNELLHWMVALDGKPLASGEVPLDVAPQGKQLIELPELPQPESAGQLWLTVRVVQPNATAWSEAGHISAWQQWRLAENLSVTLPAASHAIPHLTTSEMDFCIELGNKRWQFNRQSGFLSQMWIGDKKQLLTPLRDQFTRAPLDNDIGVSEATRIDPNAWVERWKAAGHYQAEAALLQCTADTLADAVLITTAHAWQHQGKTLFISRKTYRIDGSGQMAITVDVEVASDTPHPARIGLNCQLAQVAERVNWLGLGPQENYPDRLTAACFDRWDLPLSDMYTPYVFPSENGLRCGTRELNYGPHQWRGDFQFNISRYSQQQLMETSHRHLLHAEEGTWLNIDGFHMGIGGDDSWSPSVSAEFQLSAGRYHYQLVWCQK

[9] = molecular target: T3, Endoribonuclease toxin MazF (Escherichia coli K-12, UniProt P0AE70); test: substrate-only fluorescence increase artefacts – biochemical, single-stranded RNase substrate, counter-screen for MazEF activator project, dose response (AID 588502); type: functional
T3 sequence (P0AE70 whole entry): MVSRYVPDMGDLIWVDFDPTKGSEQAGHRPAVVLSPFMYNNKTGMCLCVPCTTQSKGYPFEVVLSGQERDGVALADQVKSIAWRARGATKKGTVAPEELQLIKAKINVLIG

[10] = molecular target: T3, Endoribonuclease toxin MazF; test: activation of MazEF endoribonuclease cleavage – biochemical, fluorescence, single-stranded RNA substrate, uHTS hits, dose response (AID 588481); type: functional
[11] = molecular target: T4, Sentrin-specific protease 7 (Homo sapiens, UniProt Q9BQF6); type: functional;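 note: Luminescence-based dose-response confirmation of ultra-high-throughput screening hits, measuring inhibition of SENP7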
T4 sequence (Q9BQF6 whole entry): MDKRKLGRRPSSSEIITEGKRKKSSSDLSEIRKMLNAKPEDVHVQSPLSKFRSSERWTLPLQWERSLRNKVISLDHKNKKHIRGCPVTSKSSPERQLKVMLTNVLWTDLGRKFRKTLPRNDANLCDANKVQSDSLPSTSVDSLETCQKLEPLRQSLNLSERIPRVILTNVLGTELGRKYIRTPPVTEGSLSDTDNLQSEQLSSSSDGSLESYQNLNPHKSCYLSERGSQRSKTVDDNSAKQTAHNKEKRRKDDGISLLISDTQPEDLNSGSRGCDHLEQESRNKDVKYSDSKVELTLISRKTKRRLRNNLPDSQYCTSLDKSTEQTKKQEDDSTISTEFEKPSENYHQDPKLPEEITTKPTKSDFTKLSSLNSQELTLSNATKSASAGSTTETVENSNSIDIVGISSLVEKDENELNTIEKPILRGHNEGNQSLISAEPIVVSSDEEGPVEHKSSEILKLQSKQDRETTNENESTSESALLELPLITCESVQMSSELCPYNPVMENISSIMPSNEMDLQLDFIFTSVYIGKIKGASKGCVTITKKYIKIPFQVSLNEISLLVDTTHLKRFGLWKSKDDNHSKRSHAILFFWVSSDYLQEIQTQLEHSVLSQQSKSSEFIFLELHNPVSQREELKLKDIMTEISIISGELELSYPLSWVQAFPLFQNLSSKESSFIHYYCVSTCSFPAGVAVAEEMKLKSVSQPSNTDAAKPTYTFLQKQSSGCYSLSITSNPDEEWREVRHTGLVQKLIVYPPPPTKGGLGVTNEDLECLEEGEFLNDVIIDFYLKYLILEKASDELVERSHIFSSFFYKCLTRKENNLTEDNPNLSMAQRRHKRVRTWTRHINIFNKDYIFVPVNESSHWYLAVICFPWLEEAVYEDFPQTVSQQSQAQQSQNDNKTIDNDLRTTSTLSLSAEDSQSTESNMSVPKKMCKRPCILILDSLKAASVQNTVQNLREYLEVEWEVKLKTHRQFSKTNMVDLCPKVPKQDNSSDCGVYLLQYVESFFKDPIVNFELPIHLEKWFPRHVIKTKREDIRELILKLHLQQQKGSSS

Caspase-3 [12] = molecular target: T5, Caspase-3 (Homo sapiens, UniProt P42574); test: SAR Analysis of small molecule inhibitors of Sentrin-specific proteases (SENPs) using a Caspase-3 Selectivity assay. [Related pubchem assays (depositor defined):AID2540, AID2599, AID434973, AID489001]; type: functional
T5 sequence (P42574 whole entry): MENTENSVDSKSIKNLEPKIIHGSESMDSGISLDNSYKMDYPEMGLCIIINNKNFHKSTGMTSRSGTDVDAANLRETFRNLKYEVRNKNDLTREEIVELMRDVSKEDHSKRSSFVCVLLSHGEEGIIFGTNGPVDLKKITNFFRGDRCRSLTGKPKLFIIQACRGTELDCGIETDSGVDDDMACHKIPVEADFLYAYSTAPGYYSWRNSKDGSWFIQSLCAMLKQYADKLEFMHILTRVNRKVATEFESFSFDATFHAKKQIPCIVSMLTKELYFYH

Caspase-3 [13] = molecular target: T5, Caspase-3; type: functional
[14] = molecular target: T6, Oxysterols receptor LXR-beta (Homo sapiens, UniProt P55055); type: functional, cell-based;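 note: agonist activity at LXR measured by a cell-based luminescence readout across a dose range, run as a counterscreen for daf-12 agonists; HEK293 cells with Gal4-LXR fusion and GAL4-driven luciferase reporter; potency for activation of Gal4-LXR reporter so compounds are agonists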
T6 sequence (P55055 whole entry): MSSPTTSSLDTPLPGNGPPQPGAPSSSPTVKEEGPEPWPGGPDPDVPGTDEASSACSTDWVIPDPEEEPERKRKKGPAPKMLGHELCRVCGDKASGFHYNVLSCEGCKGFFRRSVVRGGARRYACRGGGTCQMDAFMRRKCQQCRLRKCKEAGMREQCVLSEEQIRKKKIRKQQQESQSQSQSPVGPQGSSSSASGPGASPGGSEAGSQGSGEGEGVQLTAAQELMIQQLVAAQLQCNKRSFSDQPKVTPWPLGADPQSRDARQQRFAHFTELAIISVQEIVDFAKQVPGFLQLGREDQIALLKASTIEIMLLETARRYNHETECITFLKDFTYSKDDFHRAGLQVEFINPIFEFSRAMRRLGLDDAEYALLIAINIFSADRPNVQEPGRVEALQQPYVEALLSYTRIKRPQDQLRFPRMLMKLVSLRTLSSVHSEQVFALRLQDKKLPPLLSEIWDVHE

[15] = molecular target: T7, Sentrin-specific protease 6 (Homo sapiens, UniProt Q9GZR1); test: SAR Analysis of small molecule inhibitors of Sentrin-specific protease 6 (SENP6) using a Luminescent assay. [Related pubchem assays (depositor defined):AID2582, AID2599]; type: functional
T7 sequence (Q9GZR1 whole entry): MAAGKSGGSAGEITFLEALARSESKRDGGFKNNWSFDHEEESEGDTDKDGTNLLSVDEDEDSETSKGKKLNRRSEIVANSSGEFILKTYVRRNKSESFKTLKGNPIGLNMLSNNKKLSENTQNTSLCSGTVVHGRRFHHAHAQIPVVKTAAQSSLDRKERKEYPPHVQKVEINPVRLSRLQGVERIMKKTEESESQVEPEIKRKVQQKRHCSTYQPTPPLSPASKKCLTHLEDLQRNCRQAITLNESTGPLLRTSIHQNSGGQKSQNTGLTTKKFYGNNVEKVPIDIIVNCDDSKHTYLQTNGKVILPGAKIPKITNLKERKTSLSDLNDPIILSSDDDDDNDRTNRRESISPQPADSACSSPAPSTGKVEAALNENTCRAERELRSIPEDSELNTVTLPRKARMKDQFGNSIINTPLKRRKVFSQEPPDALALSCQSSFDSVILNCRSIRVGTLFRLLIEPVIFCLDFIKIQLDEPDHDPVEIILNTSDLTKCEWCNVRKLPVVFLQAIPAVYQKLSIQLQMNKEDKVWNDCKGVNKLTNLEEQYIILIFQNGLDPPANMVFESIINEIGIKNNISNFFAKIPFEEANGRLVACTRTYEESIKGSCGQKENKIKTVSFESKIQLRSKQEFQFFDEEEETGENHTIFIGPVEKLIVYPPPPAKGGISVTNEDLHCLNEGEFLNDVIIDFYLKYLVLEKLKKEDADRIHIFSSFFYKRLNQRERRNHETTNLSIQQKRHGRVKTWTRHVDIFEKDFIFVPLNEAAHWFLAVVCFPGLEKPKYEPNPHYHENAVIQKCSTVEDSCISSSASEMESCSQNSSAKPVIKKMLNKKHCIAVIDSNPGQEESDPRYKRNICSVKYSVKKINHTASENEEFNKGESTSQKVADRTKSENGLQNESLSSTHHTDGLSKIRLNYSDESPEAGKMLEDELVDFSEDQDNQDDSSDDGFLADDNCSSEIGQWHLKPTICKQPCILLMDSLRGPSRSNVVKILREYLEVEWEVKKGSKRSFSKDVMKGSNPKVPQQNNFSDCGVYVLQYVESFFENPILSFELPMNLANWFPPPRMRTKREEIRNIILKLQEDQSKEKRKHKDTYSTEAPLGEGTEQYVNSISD

[16] = molecular target: T7, Sentrin-specific protease 6; type: functional
[17] = molecular target: T8, Sentrin-specific protease 8 (Homo sapiens, UniProt Q96LD8); test: inhibition of human SENP8 cleavage activity – biochemical, luminescence, SAR follow-up (AID 504501); type: functional
T8 sequence (Q96LD8 whole entry): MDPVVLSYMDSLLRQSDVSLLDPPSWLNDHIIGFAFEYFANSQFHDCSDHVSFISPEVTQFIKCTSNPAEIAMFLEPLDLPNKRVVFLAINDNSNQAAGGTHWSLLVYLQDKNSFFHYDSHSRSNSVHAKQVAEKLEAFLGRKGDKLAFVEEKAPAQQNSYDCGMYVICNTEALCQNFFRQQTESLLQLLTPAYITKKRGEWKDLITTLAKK

[18] = molecular target: T4, Sentrin-specific protease 7; test: inhibition of human SENP7 cleavage activity – biochemical, luminescence, SAR follow-up (AID 504497); type: functional
[19] = molecular target: T8, Sentrin-specific protease 8; type: functional
[20] = molecular target: Ras and Rab interactor 1/Tyrosine-protein kinase ABL1 (Homo sapiens, UniProt P00519+Q13671); type: functional;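 note: biochemical TR-FRET dose-response test measuring inhibition of binding between Rin1 and Abl proteins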
Ras and Rab interactor 1/Tyrosine-protein kinase ABL1, sequence (P00519 whole entry): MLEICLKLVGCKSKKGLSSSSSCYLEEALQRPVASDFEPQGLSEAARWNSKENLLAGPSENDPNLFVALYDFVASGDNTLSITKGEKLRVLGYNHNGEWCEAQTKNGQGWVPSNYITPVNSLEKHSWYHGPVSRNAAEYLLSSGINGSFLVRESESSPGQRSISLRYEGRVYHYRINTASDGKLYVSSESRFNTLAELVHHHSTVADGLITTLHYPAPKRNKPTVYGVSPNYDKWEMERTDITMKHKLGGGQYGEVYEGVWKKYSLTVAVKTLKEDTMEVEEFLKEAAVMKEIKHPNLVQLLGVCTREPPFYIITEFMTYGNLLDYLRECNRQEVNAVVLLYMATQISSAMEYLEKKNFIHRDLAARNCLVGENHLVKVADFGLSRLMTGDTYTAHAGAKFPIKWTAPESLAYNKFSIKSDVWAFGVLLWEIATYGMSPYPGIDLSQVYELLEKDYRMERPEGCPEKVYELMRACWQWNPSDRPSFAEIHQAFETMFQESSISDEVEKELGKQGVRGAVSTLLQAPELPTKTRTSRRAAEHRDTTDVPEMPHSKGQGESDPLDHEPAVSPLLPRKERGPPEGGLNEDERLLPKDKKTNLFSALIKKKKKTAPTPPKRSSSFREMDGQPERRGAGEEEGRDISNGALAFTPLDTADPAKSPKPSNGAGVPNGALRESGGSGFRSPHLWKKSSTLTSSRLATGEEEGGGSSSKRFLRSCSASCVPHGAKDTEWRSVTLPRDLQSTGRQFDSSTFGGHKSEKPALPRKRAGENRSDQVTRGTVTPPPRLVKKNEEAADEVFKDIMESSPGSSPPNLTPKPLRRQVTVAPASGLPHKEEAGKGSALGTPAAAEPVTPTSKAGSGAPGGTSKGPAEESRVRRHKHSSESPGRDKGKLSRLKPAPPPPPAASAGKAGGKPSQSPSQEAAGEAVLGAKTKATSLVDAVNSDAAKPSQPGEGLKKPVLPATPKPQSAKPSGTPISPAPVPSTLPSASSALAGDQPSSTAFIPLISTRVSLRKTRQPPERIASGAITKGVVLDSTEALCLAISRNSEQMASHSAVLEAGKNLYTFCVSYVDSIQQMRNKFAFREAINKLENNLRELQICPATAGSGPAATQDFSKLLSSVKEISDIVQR
Ras and Rab interactor 1/Tyrosine-protein kinase ABL1, sequence (Q13671 whole entry): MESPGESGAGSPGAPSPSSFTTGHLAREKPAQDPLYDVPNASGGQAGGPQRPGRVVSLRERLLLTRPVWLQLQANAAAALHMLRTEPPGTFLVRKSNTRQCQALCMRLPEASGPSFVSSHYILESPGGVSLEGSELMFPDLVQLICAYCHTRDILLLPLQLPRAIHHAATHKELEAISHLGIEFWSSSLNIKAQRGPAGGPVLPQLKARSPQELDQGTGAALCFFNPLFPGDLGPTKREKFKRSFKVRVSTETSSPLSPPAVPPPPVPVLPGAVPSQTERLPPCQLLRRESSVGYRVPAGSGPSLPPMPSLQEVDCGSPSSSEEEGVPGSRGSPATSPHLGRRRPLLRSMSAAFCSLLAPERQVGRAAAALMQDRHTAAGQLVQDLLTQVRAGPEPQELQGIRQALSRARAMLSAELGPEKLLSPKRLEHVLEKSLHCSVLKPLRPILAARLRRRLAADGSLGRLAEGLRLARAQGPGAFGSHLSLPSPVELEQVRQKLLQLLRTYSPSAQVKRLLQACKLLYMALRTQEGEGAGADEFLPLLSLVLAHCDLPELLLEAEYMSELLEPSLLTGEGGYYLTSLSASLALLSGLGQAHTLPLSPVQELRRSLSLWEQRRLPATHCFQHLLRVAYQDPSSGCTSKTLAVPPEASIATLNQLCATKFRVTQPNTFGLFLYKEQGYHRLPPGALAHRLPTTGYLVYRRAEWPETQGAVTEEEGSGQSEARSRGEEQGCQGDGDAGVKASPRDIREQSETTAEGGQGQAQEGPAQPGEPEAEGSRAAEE

## O=C1NC(=O)N(Cc2ccccc2)C(=O)/C1=C\C=C\c1ccco1
HEK293 [1]
  EC50: > 59.6 µM (inactive)
[2]
  AC50: 1.48 µM (active)
[3]
  AC50: 6.29 µM (active)
[4]
  IC50: 1.59 µM (active)
[5]
  CC50: > 40 µM (active)
A-375
  AC50: 30.6 µM (active)
HEK293 [6]
  EC50: > 59.6 µM (inactive)

## Cc1ccc(C)c(NC(=O)Nc2ccc(-c3c(C)sc4ncnc(N)c34)cc2)c1
Aurora kinase A
  Ki: 0.251 µM (active)
[7]
  Ki: > 100 µM (inactive)

## COc1cccc(NC(=O)C(=O)NCCC2CCCCN2S(=O)(=O)c2cccs2)c1 (stereo not given)
HeLa
  AC50: 239 µM (active)

## NC(S)=NN=C(S)Nc1ccccc1
[8]
  IC50: > 40 µM (not active)
Beta-galactosidase
  EC50: > 40 µM (inactive)

## CC(C)(C)c1ccc(C(=O)CSc2nc3ccccc3c(=O)[nH]2)cc1
[9]
  EC50: > 99 µM (inactive)
[10]
  EC50: > 99 µM (inactive)

## c1ccc(Nc2nc(-c3ccccc3)ns2)cc1
[11]
  IC50: 2.1 µM (active)
Caspase-3 [12]
  IC50: 7.8 µM (active)
Caspase-3 [13]
  IC50: 18.8 µM (active)
[14]
  EC50: > 67.6 µM (inactive)
[15]
  IC50: 1.9 µM (active)
[16]
  IC50: 2.19 µM (active)
[17]
  IC50: 2.5 µM (active)
[18]
  IC50: 1.7 µM (active)
[19]
  IC50: 2.41 µM (active)

## CC(C)(C)OC(=O)N1CCC(C(=O)Nc2ccc(C(=O)N3CCCCC3)cc2)CC1
[20]
  IC50: 21.9 µM (inactive)

## Cc1ccsc1CCNC(=O)C1CCC(=O)N(CCc2cccc(F)c2)C1 (stereo not given)
HeLa
  AC50: 99.1 µM (active)

— ChEMBL document CHEMBL1201862, “PubChem BioAssay data set” (2004)
